In patent EP0346744A1, “Condensed diazepinones, process for their preparation and medicaments containing them” (Dr. Karl Thomae GmbH, priority 1988, dated 1989):
Where a name gives a salt, the structure may show the parent alone.

Columns and labels:
[1] = system: Bronchien; experiment: Inhibition of acetylcholine effect on bronchi of the guinea pig; format: in vivo, Meerschweinchen; conditions: for ED50: Cavia porcellus, 5 min, anaesthetised guinea pig, 10 µg/kg acetylcholine 5 min after test substance, expiratory resistance (Konzett-Rößler), read-out: -log ED50 Bronchien (converted)
Procedure: (§1) 3. Hemmung der Acetylcholinwirkung auf Blase, Bronchien und Herzfrequenz des Meerschweinchens
(§2) Am narkotisierten Meerschweinchen wurden 5 Minuten nach Gabe der Prüfsubstanz 10 µg/kg Acetylcholin intravenös als auch gleichzeitig intraarteriell injiziert. Dabei wurde die Herzfrequenz durch extrakorporale Ableitung des EKG, der Ausatemwiderstand nach Konzett-Rößler und die Kontraktion der freigelegten Harnblase direkt registriert. Für die Hemmung der Acetylcholinwirkung an den untersuchten Organen wurden Dosis-Wirkungskurven aufgenommen und daraus -log EDso-Werte bestimmt. Ergebnisse siehe Tabelle III.

[2] = system: Herzfrequenz; experiment: Inhibition of acetylcholine effect on heart rate of the guinea pig; format: in vivo, Meerschweinchen; conditions: for ED50: Cavia porcellus, 5 min, anaesthetised guinea pig, 10 µg/kg acetylcholine 5 min after test substance, heart rate by ECG
Procedure: as §1, §2

[3] = system: M2; experiment: Inhibition of vagal-stimulation bradycardia in the rat (M1/M2 selectivity, heart); format: in vivo, Ratte
Procedure: (§3) 1. M,- M2-Selektivität an der Ratte
(§4) Die angewandte Methode wurde von Hammer und Giachetti (Life Sciences 31, 2991-2998 (1982)) beschrieben. 5 Minuten nach intravenöser Injektion steigender Dosen der Substanz wurden entweder der rechte Vagus elektrisch stimuliert (Frequenz: 25 Hz; Pulsbreite: 2ms; Reizdauer: 30s; Voltzahl: supramaximal) oder 0,3 mg kg McN-A-343 in männliche THOM-Ratten intravenös injiziert. Die durch Vagusstimulation hervorgeru fene Bradykardie und der durch McN-A-343 verursachte Blutdruckanstieg wurden bestimmt. Die Dosis der Substanzen, die entweder die vagale Bradykardie (M2) oder den Blutdruckanstieg (Mi) um 50% verminderte, wurde graphisch ermittelt. Ergebnisse siehe Tabelle II.

[4] = system: Speichelsekretion; experiment: Inhibition of pilocarpine-induced salivation in the rat; format: in vivo, Ratte; conditions: iv; urethane-anaesthetised rat, i.v.; salivation induced by 2 mg/kg pilocarpine s.c.; dose reducing saliva volume by 50%; read-out: -log ED50 Salivation (converted)
Procedure: 2. Speichselsekretionshemmende Wirkung an der Ratte
Nach Lavy und Mulder (Arch. int. Pharmacodyn. 178. 437-445, (1969)) erhielten mit 1,2 glkg Urethan narkotisierte männliche THOM-Ratten steigende Dosen der Substanz i.v.. Die Speichelsekretion wurde durch s.c. Gabe von 2 mg kg Pilocarpin ausgelöst. Der Speichel wurde mit Fließpapier aufgesaugt, die von ihm eingenommene Fläche alle 5 Minuten planimetrisch bestimmt. Die Dosis der Substanz, die das Speichelvolumen um 50% verminderte, wurde graphisch ermittelt. Ergebnisse siehe Tabelle II.

[5] = system: Blase; experiment: Inhibition of acetylcholine effect on bladder of the guinea pig; format: in vivo, Meerschweinchen; conditions: for ED50: Cavia porcellus, 5 min, anaesthetised guinea pig, 10 µg/kg acetylcholine 5 min after test substance, contraction of exposed urinary bladder, read-out: -log ED50 Blase (converted)
Procedure: as §1, §2

[6] = system: M1; experiment: Inhibition of McN-A-343-induced blood pressure rise in the rat (M1/M2 selectivity); format: in vivo, Ratte
Procedure: as §3, §4

[7] = rat, i.v., 5 min before electrical stimulation of the right vagus, dose reducing vagal bradycardia (M2) by 50%
[8] = rat, i.v., 5 min before 0,3 mg/kg McN-A-343 i.v., dose reducing blood pressure rise (M1) by 50%

| Compound | ED50 [1] | ED50 [2] | -log ED50 Herz [3, 7] | ED50 [4] | ED50 [5] | -log ED50 Blutdruck [6, 8] | -log ED50 Blutdruck ([6]; in vivo) | -log ED50 Bronchien ([1]; in vivo) | -log ED50 Herz ([2]; in vivo) | -log ED50 Herz ([3]; in vivo, iv) | -log ED50 Blase ([5]; in vivo) |
| --- | --- | --- | --- | --- | --- | --- | --- | --- | --- | --- | --- |
| Cc1ccc2c(c1)C(=O)Nc1cccnc1N2C(=O)CN(C)CCC1CCCCCN1C (centres unmarked) [D, 5,11-Dihydro-8-methyl-11-[[[2-(1-methyl-hexahydro-1H-2-azepinyl)ethyl]methylamino]acetyl]-6H-pyrido[2,3-b][1,4]benzodiazepin-6-on] | 0.135 µmol/kg | 0.0525 µmol/kg | 7,67 Mkg^-1 | 0.617 µmol/kg | 0.347 µmol/kg |  |  |  |  |  |  |
| CN(CCC1CCCCCN1C)CC(=O)N1c2ccccc2C(=O)Nc2cccnc21 (centres unmarked) [B, 5.11-Dihydro-11-[[[2-(1-methyl-hexahydro-1 H-2-azepinyi)ethyl]methylamino]acetyl]-6H-pyrido-[2,3-b][1,4]benzodiazepin6-on] | 0.0646 µmol/kg | 0.0251 µmol/kg | 7,41 Mkg^-1 | 3.39 µmol/kg | 0.269 µmol/kg | 6,46 Mkg^-1 |  |  |  |  |  |
| CCN(CC)CC1CCCCN1CC(=O)N1c2ccccc2C(=O)Nc2cccnc21 (centres unmarked) [E, 11-[[2-[(Diethylamino)methyl]-1-piperidinyl]acetyl]-5,11-dihydro-6H-pyrido[2,3-b][1,4]-benzodiazepin-6-on, reference compound] |  |  | 6,42 Mkg^-1 | 10 µmol/kg |  |  |  |  |  |  |  |
| CN1C2CCC1CC(OC(=O)C(CO)c1ccccc1)C2 (racemic) [G, Atropin, reference compound] |  |  |  |  |  |  | 7,34 Mkg^-1 | 7,96 Molkg^-1 | 7,70 Molkg^-1 | 7,94 Mkg^-1 | 7,03 Molkg^-1 |
| CN(CCC1CCCCCN1C)CC(=O)N1c2cc(Cl)ccc2C(=O)Nc2cccnc21 (centres unmarked) [C, 9-Chior-5,11-dihydro-11-[[[2-(1-methyl-hexahydro-1H-2-azepinyl)ethyl]methylamino]acetyl]-6H-pyrido[2,3-b][1,4]benzodiazepin-6-on-hydrochlorid] | 0.191 µmol/kg | 0.055 µmol/kg | 7,5 Mkg^-1 | 3.02 µmol/kg | 0.234 µmol/kg |  |  |  |  |  |  |
| CN(CCC1CCCCN1C)CC(=O)N1c2ccccc2C(=O)Nc2cccnc21 (centres unmarked) [A] | 0.0457 µmol/kg | 0.0178 µmol/kg | 7,48 Mkg^-1 | 1.23 µmol/kg | 0.12 µmol/kg | 6,34 Mkg^-1 |  |  |  |  |  |
